Experimental findings from patent US20130303535A1, “NOVEL BICYCLIC HETEROCYCLIC COMPOUND” (priority 2008, published 2013) are described below.

Sequence of TTX resistant Na channel of human SNS-expressing cell (SNS) (Q9Y5Y9 whole entry, looked up): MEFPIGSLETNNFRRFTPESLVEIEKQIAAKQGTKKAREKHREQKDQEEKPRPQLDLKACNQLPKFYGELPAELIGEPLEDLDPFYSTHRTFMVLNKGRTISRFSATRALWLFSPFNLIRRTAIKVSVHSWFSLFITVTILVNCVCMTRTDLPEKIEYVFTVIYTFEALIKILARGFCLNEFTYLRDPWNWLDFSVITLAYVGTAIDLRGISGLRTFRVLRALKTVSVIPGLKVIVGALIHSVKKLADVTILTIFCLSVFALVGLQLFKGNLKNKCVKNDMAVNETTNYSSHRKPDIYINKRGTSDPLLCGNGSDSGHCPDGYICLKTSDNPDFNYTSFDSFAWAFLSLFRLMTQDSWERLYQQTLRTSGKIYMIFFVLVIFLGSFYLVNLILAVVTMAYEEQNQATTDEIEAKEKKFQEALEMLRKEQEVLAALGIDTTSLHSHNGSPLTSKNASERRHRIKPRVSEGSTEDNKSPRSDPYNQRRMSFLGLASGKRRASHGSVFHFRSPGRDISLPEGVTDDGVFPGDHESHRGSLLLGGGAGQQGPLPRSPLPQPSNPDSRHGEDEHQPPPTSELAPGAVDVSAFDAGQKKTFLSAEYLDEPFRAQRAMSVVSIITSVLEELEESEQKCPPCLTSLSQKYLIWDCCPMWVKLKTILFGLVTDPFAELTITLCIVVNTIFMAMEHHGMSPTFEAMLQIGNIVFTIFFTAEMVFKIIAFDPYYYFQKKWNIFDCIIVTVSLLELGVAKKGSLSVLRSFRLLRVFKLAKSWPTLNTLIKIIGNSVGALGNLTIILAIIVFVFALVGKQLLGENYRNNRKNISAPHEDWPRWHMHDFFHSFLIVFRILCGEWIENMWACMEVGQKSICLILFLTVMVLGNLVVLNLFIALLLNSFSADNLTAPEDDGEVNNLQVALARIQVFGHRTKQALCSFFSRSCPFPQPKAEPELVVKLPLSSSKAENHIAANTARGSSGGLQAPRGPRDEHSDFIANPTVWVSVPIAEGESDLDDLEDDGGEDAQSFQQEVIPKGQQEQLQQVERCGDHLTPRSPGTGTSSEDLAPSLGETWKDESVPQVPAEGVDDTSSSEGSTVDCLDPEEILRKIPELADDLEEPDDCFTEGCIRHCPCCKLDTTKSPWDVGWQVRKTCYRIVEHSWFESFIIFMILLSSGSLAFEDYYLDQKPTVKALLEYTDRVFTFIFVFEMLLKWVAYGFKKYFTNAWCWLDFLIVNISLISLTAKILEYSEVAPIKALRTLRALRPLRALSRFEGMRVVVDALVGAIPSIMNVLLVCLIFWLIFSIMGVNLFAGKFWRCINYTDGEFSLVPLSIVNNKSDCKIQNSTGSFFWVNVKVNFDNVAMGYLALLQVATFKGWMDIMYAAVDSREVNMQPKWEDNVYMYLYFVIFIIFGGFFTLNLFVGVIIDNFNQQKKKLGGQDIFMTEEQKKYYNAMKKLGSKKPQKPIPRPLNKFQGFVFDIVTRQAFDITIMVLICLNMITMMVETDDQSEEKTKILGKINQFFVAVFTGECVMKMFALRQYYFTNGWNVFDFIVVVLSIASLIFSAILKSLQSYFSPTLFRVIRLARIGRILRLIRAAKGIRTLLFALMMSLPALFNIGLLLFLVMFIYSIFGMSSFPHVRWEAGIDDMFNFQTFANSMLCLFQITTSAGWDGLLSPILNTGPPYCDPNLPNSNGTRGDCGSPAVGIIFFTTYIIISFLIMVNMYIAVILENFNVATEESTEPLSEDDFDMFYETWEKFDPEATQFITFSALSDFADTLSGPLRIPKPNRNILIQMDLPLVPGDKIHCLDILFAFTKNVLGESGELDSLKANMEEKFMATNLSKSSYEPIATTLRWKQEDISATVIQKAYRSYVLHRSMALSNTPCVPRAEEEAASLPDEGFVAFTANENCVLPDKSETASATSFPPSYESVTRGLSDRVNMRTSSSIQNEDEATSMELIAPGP

The assay has as its target TTX resistant Na channel of human SNS-expressing cell (SNS) (Homo sapiens, UniProt Q9Y5Y9). Nature of the assay: cell-based. The following applies: CHO-K1, compound concentration 12.5 μM; read-out: SNS inhibitory rate (%).
With `COCCn1c(CNC(C)(C)C(N)=O)nc2ccc(Oc3ccc(F)cc3)cc21` [Example 91, N^2-{[6-(4-fluorophenoxy)-1-(2-methoxyethyl)-1H-benzimidazol-2-yl]methyl}-2-methylalaninamide], the inhibition at 12.5 µM turned out to be 76.4%. With `CCOCCn1c(CN[C@@H](C)C(N)=O)nc2ccc(-c3ccc(Cl)cc3)cc21` [Example 73] the figure was 8%. The same measure for `CCOCCn1c(CN[C@@H](C)C(N)=O)nc2cc(Cl)c(-c3ccc(OC(F)(F)F)cc3)cc21` [Example 181]: 0%.

As to `COCCn1c(CN[C@@H](C)C(N)=O)nc2ccc(Oc3ccc(F)cc3)cc21` [Example 60], the inhibition at 12.5 µM is 75.7%. Turning to `CCOCCn1c(CN[C@@H](C)C(N)=O)nc2ccc(-c3c(C)cc(C)cc3C)cc21` [Example 164], the inhibition at 12.5 µM came to 3.7%. The same measure for `CCOCCn1c(CNC(C)(C)C(N)=O)nc2ccc(Oc3ccc(F)c(F)c3)cc21` [Example 141]: 90.3%; for `CC(C)(NCc1nc2ccc(Oc3ccc(F)cc3F)cc2n1C[C@@H]1CCCO1)C(N)=O` [Example 137]: 90.7%. With `CCn1c(CN[C@@H](C)C(N)=O)nc2ccc(Oc3ccc(C)cc3)cc21` [Example 96], the inhibition at 12.5 µM is 84.8%.

As to `CCOCCn1c(CNCC(N)=O)nc2ccc(-c3ccc(F)cc3)cc21` [Example 67], the inhibition at 12.5 µM is 30.8%. The same measure for `NC(=O)CNCc1nc2ccc(Oc3ccc(F)cc3)cc2n1C1CCC1` [Example 18]: 14.2%; for `C[C@H](NCc1nc2ccc(Oc3ccc(OC(F)(F)F)cc3)cc2n1CCCO)C(N)=O` [Example 133]: 91.7%; for `CCOCCn1c(CN[C@H](C(N)=O)C(C)C)nc2ccc(-c3ccc(F)cc3)cc21` [Example 151]: 26.6%. Regarding `CCOCCn1c(CN[C@@H](C)C(N)=O)nc2ccc(-c3ccc(F)cc3C)cc21` [Example 157], the inhibition at 12.5 µM worked out at 89.9%. The same measure for `C[C@H](NCc1nc2ccc(Oc3ccc(F)c(F)c3)cc2n1C1CCOCC1)C(N)=O` [Example 128]: 85%; for `CC(C)OCCn1c(CNCC(N)=O)nc2ccc(Oc3ccc(F)cc3)cc21` [Example 61]: 26.1%.

As for `CCOCCn1c(CN[C@@H](C)C(N)=O)nc2ccc(Oc3ccc(C)cc3)cc21` [Example 42], the inhibition at 12.5 µM turned out to be 76.7%. The same measure for `COCCCn1c(CN[C@@H](C)C(N)=O)nc2ccc(Oc3ccc(C)cc3)cc21` [Example 126]: 56.9%.
